Data reported in paper PMC12526004, “Tiliroside Suppresses Uric Acid Production in Hepatocytes and Attenuates Purine-Induced Hyperuricemia in Male ICR Mice” (Molecules, 2025).

Tests used:
AML12 hepatocytes = assay: UA production by AML12 cells stimulated with UA precursors; assay type: cell-based; conditions: for maximum reduction of UA production: guanosine + inosine (GI mixture) 100 µM each, 2 h, vs control (0 µM); for UA production: UA precursor xanthine
Procedure: AML12 hepatocytes used in this study were acquired from ATCC (CRL-2254), Manassas, VA, USA. AML12 cells were maintained in DMEM/F-12 (Life Technologies, Grand Island, NY, USA) supplemented with 10% (v/v) fetal bovine serum (FBS; Hyclone, Logan, UT, USA), recombinant human insulin (5 µg/mL), human transferrin (5 µg/mL), and dexamethasone (40 ng/mL), each obtained from FUJIFILM Wako, as well as selenium (3 ng/mL, Sigma-Aldrich) and penicillin–streptomycin mixed solution (100 U/mL penicillin and 100 µg/mL streptomycin, Nacalai Tesque), under a humidified atmosphere of 5% CO2 at 37 °C. Culture of AML12 hepatocytes and measurement of UA production were conducted following a previously reported protocol.Cells were seeded at a density of 1.0 × 10^5 cells per well in 24-well plates and cultured for 72 h in complete medium, followed by 24 h in serum-free DMEM/F-12. After serum deprivation, cells were rinsed once with calcium- and magnesium-free phosphate-buffered saline [PBS (–)] and incubated in 200 µL of balanced salt solution (BSS) containing […], 5 mM KCl, 1 mM MgCl2, 0.8 mM CaCl2, 25 mM NaHCO3, 1 mM NaH2PO4, 10 mM HEPES, and 5 mM glucose. […] The final concentration of DMSO in all samples was adjusted to 0.15%. After a 2-h incubation, 200 µL of the reaction mixture was collected for UA quantification. The UA concentration in BSS was used as an indicator of UA production. Subsequently, cells were washed with PBS (–) and lysed in 300 µL of buffer containing 50 mM Tris and 1 mM sodium phosphate (pH 7.5). Lysates were sonicated and centrifuged (12,000× g, 5 min, 4 °C), and the supernatants were used for protein quantification using the Pierce™ BCA Protein Assay Kit (Thermo Fisher Scientific Inc., Waltham, MA, USA). UA levels were measured using the uricase-based Uric Acid C-Test Wako (FUJIFILM Wako). UA production was expressed as nanomoles per 2 h per milligram of cellular protein (nmol/2 h/mg protein).

[1] = system: mice with purine-induced hyperuricemia; assay: Plasma UA in mice with purine-induced hyperuricemia; assay type: in vivo, male ICR mice; conditions: three days; for effect on plasma UA increase / effect on plasma UA levels: vs hyperuricemic control
Procedure: (§1) The antihyperuricemic effect of tiliroside was evaluated using mice with purine-induced hyperuricemia, following a previously described procedure. […] The test compounds were suspended in 0.2 mL of 0.5% CMC-Na based on the average body weight of each group. The actual volume administered was adjusted according to the individual body weight of each mouse. Prior to each administration, the mice were fasted for four hours. The negative and hyperuricemic control groups received the vehicle (0.5% CMC-Na) alone. […] GMP and IMP were dissolved in 0.2 mL of PBS (–) based on the average body weight of all mice. The injection volume was similarly adjusted according to each mouse’s body weight. These injections were performed one hour after the final oral administration of the test compounds or vehicle. The negative control group received PBS (–) alone. […] The liver and kidneys were then excised. Blood samples were centrifuged at 5000× g for 10 min at 4 °C to obtain plasma, which was stored at −80 °C until analysis. UA concentrations in plasma and liver homogenates were determined using the uricase-based Uric Acid C-Test Wako. Protein concentrations in the liver samples were measured with the Pierce™ BCA Protein Assay Kit. Liver UA levels were expressed as milligrams per gram of liver protein (mg/g protein).

[2] = system: mice with purine-induced hyperuricemia; assay: Hepatic UA level in hyperuricemic model mice; assay type: in vivo, male ICR mice; conditions: three days; for Hepatic UA Level: mean ± SEM
Procedure: as §1, with “analysis. Liver samples preparation was performed according to the methods previously described. Each portion of the liver tissue was processed for a specific analysis. One portion was homogenized in ice-cold 100 mM Tris-HCl buffer (pH 7.5), followed by sonication and centrifugation at 10,000× g for 5 min at 4 °C. The resulting supernatant was collected for the determination of UA levels. Another portion was treated similarly using Tris-HCl buffer containing 1 mM EDTA-2Na, and the supernatant was used to measure XO activity. The final portion was homogenized in ice-cold RIPA lysis buffer (Nacalai Tesque) and centrifuged under the same conditions, and the resulting supernatant was used for Western blot analysis.” for “analysis.”

URAT1 = assay: Renal mRNA expression, real-time quantitative PCR; assay type: in vivo, male ICR mice; conditions: three days, vs hyperuricemic control
Procedure: The antihyperuricemic effect of tiliroside was evaluated using mice with purine-induced hyperuricemia, following a previously described procedure. […] The test compounds were suspended in 0.2 mL of 0.5% CMC-Na based on the average body weight of each group. The actual volume administered was adjusted according to the individual body weight of each mouse. Prior to each administration, the mice were fasted for four hours. The negative and hyperuricemic control groups received the vehicle (0.5% CMC-Na) alone. […] GMP and IMP were dissolved in 0.2 mL of PBS (–) based on the average body weight of all mice. The injection volume was similarly adjusted according to each mouse’s body weight. These injections were performed one hour after the final oral administration of the test compounds or vehicle. The negative control group received PBS (–) alone. […] The liver and kidneys were then excised. Blood samples were centrifuged at 5000× g for 10 min at 4 °C to obtain plasma, which was stored at −80 °C until analysis. To assess renal gene expression, four mice per group were selected based on plasma UA levels approximating the group mean. Total RNA was extracted from kidney tissues of the negative control, hyperuricemic model, allopurinol-treated, and high-dose tiliroside-treated groups using the Trizol-chloroform method (Thermo Fisher Scientific). Reverse transcription was performed with 1 µg of RNA using iScript reverse transcriptase (Bio-Rad, Hercules, CA, USA). Quantitative PCR was conducted using the MyiQ2 real-time PCR system (Bio-Rad), with GAPDH as the reference gene.

[3] = 300 mg/kg oral, hyperuricemic mice

Compound	maximum reduction of UA production (AML12 hepatocytes; 1 µM)	effect on plasma UA increase ([1]; 10 mg/kg body weight oral)	Hepatic UA Level ([2]; 10 mg/kg body weight oral)	renal URAT1 mRNA expression (URAT1; 10 mg/kg oral)	UA production (AML12 hepatocytes; 10 µM)	UA production (AML12 hepatocytes; 30 µM)	UA production (AML12 hepatocytes; 100 µM)	maximum reduction of UA production (AML12 hepatocytes; 100 µM)	effect on plasma UA levels ([1]; 50 mg/kg body weight oral)	effect on plasma UA levels ([1]; 100 mg/kg body weight oral)	effect on plasma UA increase ([1]; 300 mg/kg body weight oral)	lowering of plasma UA level [1, 3]	Hepatic UA Level ([2]; 50 mg/kg oral)	Hepatic UA Level ([2]; 100 mg/kg oral)	lowering of hepatic UA level [2, 3]	Hepatic UA Level ([2]; 300 mg/kg oral)	renal URAT1 mRNA expression (URAT1; 300 mg/kg oral)
Oc1ncnc2[nH]ncc12 [Allopurinol, allopurinol, reference compound]	approximately 94.6%	significantly reduced	0.60 ± 0.03 mg/g Protein	significantly downregulated	–	–	–	–	–	–	–	–	–	–	–	–	–
O=C(/C=C/c1ccc(O)cc1)OC[C@H]1O[C@@H](Oc2c(-c3ccc(O)cc3)oc3cc(O)cc(O)c3c2=O)[C@H](O)[C@@H](O)[C@@H]1O [Tiliroside, kaempferol-3-O-(6′′-p-coumaroyl)-glucoside]	–	–	–	–	82.7 ± 2.4 nmol/2 h/mg protein	45.4 ± 1.8 nmol/2 h/mg protein	28.0 ± 1.2 nmol/2 h/mg protein	approximately 86.6%	failed to produce a statistically significant reduction	failed to produce a statistically significant reduction	significantly reduced	approximately 30%	1.30 ± 0.16 mg/g Protein	1.13 ± 0.16 mg/g Protein	~55%	0.79 ± 0.11 mg/g Protein	significantly downregulated
